Test results from article PMC9967275, “Screening the Pathogen Box to Discover and Characterize New Cruzain and TbrCatL Inhibitors” (Pathogens, 2023).
Where two headings read alike, the source gives them in different places.

How the values were obtained:
[1] = target: T1, TbrCatL (Trypanosoma brucei rhodesiense, UniProt Q95PM0); assay: TbrCatL enzymatic inhibition assay (cleavage of fluorogenic substrate Z-FR-AMC); type: biochemical; details: for TbrCatL 0’ Inhibition / TbrCatL 10’ Inhibition: sheet "Screening results";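 on TbrCatL 0’ Inhibition: at 5 µM compound concentration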;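 on TbrCatL 10’ Inhibition: at 5 µM compound concentration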;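 on TbrCatL Inhibition 0’: at 5 µM compound concentration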;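 on TbrCatL Inhibition 10’: at 5 µM compound concentration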
T1 construct: Conor Caffrey (University of California San Diego)
Procedure, shortened: (§1)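 Recombinant enzymes assayed by Z-Phe-Arg-AMC cleavage at 25 °C, fluorescence 340/440 nm over 5–7 min, with 10 min or no enzyme–compound preincubation.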

[2] = target: cruzain (Trypanosoma cruzi, UniProt P25779); assay: biochemical; details: for Cruzain 0’ Inhibition / Cruzain 10’ Inhibition: sheet "Screening results";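 on Cruzain 0’ Inhibition: at 5 µM compound concentration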;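 on Cruzain 10’ Inhibition: at 5 µM compound concentration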;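 on Cruzain Inhibition 0’: at 5 µM compound concentration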;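 on Cruzain Inhibition 10’: at 5 µM compound concentration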
Procedure, shortened: as §1

[3] = 0’ (pre-incubation time), Pathogen Box screening results
[4] = 10’ (pre-incubation time), Pathogen Box screening results
[5] = 0’ (no pre-incubation), sheet Screening results
[6] = 10’ (pre-incubation), sheet Screening results

T1 sequence (Q95PM0 entry or part of it): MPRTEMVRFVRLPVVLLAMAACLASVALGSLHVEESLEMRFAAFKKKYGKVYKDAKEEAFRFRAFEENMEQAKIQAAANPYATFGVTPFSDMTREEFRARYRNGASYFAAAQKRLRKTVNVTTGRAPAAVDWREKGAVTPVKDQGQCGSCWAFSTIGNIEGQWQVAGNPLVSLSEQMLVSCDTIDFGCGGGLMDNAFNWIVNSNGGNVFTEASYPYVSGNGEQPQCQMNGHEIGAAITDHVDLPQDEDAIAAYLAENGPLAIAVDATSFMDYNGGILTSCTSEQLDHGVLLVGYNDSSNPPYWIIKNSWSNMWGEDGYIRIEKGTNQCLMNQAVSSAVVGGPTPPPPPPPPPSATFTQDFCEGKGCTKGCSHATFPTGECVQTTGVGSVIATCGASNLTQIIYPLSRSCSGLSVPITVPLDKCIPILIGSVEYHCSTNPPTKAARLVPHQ
cruzain, sequence (P25779 123-337 limits assumed): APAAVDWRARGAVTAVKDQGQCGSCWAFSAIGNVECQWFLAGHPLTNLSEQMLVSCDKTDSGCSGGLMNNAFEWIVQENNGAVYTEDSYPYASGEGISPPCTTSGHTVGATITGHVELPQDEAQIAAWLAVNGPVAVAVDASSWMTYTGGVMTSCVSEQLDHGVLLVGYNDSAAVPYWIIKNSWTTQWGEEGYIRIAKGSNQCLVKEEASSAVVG

Row | Compound | TbrCatL 0’ Inhibition ([1]; 0’ (pre-incubation time)) [%] | TbrCatL 10’ Inhibition ([1]; 10’ (pre-incubation time)) [%] | Cruzain 0’ Inhibition ([2]; 0’ (pre-incubation time)) [%] | Cruzain 10’ Inhibition ([2]; 10’ (pre-incubation time)) [%] | TbrCatL Inhibition 0’ [1, 5] [%] | TbrCatL Inhibition 10’ [1, 6] [%] | Cruzain Inhibition 0’ [2, 5] [%] | Cruzain Inhibition 10’ [2, 6] [%] | further results
1 | CCOc1ccc(-c2nc(CNCCc3ccc(F)cc3)cs2)cc1 [MMV688938] | 3 | -3.6 | 6 | 12 |  |  |  |  | 
2 | Cc1ccc2nc(C)c(-c3ccn(Cc4ccccc4)n3)n2c1 [MMV688939] |  |  |  |  |  |  |  |  | TbrCatL Inhibition 0’ [1, 3]: -0.4%; TbrCatL Inhibition 10’ [1, 4]: -9%; Cruzain Inhibition 0’ [2, 3]: -1.4%; Cruzain Inhibition 10’ [2, 4]: -4%
3 | COc1cc(CN2CCC3(C=Cc4ccccc43)CC2)cc2c1OCO2 [MMV688941] | -3.2 | -4 | 1.7 | 6 |  |  |  |  | 
4 | CC(C)(C)C(O)C(Oc1ccc(-c2ccccc2)cc1)n1cncn1 (stereo not shown) [MMV688942] |  |  |  |  | 13 | -1.4 | 14 | 9 | 
5 | CC1COC(Cn2cncn2)(c2ccc(Oc3ccc(Cl)cc3)cc2Cl)O1 (stereo not shown) [MMV688943] |  |  |  |  | 15 | 4 | 13 | 10 | 
6 | Cc1cc(NC(=O)c2ccc(Oc3ccc(Cl)cc3O)o2)no1 [MMV688955] | -6 | -12 | -9 | -13 |  |  |  |  | 
7 | CC(=O)OC[C@H]1O[C@@H]([S-])[C@H](OC(C)=O)[C@@H](OC(C)=O)[C@@H]1OC(C)=O.CC[PH+](CC)CC.[Au] [MMV688978] |  |  |  |  |  |  |  |  | TbrCatL Inhibition 0’ [1, 3]: -13%; TbrCatL Inhibition 10’ [1, 4]: -63%; Cruzain Inhibition 0’ [2, 3]: -20%; Cruzain Inhibition 10’ [2, 4]: -71%
8 | CCc1cc(=O)n(C)c(SC(C)C(=O)Nc2ccc(F)cc2)n1 (stereo not shown) [MMV688980] | -11 | -14 | -3.8 | -0.6 |  |  |  |  | 
9 | CCCCCCCCCCCCCCCCOP(=O)([O-])OCC[N+](C)(C)C [MMV688990] |  |  |  |  |  |  |  |  | TbrCatL Inhibition 0’ [1, 3]: -2.4%; TbrCatL Inhibition 10’ [1, 4]: -12%; Cruzain Inhibition 0’ [2, 3]: -0.1%; Cruzain Inhibition 10’ [2, 4]: 0.6%
10 | CC(=O)Oc1ccccc1C(=O)Nc1ncc([N+](=O)[O-])s1 [MMV688991] |  |  |  |  | 10 | 3.7 | 8 | 4 | 
11 | CNC1C(OC2C(OC3C(O)C(O)C(N=C(N)N)C(O)C3N=C(N)N)OC(C)C2(O)C=O)OC(CO)C(O)C1O (stereo not shown) [MMV688994] |  |  |  |  | 1.1 | 1.5 | -4 | -2.3 | 
12 | C[C@@H]1[C@H](O)[C@@H](C)/C=C/C=C/C=C/C=C/C=C/C=C/C=C/[C@H](O[C@@H]2O[C@H](C)[C@@H](O)[C@H](N)[C@@H]2O)C[C@@H]2O[C@](O)(C[C@@H](O)C[C@@H](O)[C@H](O)CC[C@@H](O)C[C@@H](O)CC(=O)O[C@H]1C)C[C@H](O)[C@H]2C(=O)O [MMV689000] | 11 | 9 | 10 | 10 |  |  |  |  | 
13 | Cc1ccc(S(=O)(=O)Nc2ccc(CN3CCN(C(=O)c4cccc(C#N)c4)CC3)cc2)cc1 [MMV689028] |  |  |  |  | -0.6 | -0.3 | -0.6 | 8 | 
14 | COc1ccc(S(=O)(=O)Nc2ccc(CN3CCN(C(=O)c4cccc(C#N)c4)CC3)cc2)cc1 [MMV689029] | 0.7 | 1.2 | 2.5 | 5.4 |  |  |  |  | 
15 | Clc1ccc(CN2CCN(C3=NCCN3)CC2)cc1Cl [MMV689060] |  |  |  |  | -5 | 2 | -3 | -0.1 | 
16 | CC(=O)Nc1ccc(-c2noc(CC3CCCN(Cc4cccc(F)c4C)C3)n2)cc1 (stereo not shown) [MMV689061] |  |  |  |  | 0 | 0.8 | 1.2 | 3.6 | 
17 | FC(F)(F)c1ccc(N(c2cccnc2)C2CCN(c3ccc(C(F)(F)F)cn3)CC2)cc1 [MMV689243] | -9 | -5 | 2.3 | -3 |  |  |  |  | 

Row | Compound | TbrCatL 0’ Inhibition ([1]; 0’ (pre-incubation time)) [%] | TbrCatL 10’ Inhibition ([1]; 10’ (pre-incubation time)) [%] | Cruzain 0’ Inhibition ([2]; 0’ (pre-incubation time)) [%] | Cruzain 10’ Inhibition ([2]; 10’ (pre-incubation time)) [%] | TbrCatL Inhibition 0’ [1, 5] [%] | TbrCatL Inhibition 10’ [1, 6] [%] | Cruzain Inhibition 0’ [2, 5] [%] | Cruzain Inhibition 10’ [2, 6] [%] | further results
18 | O=C([C@@H](c1ccc(Cl)cc1)c1cccnc1)N1CCN(c2ccc(C(F)(F)F)cc2)CC1 [MMV689244] | 6.4 | -2.8 | 2.7 | -3.2 |  |  |  |  | 
19 | Nc1ncnc2c1ncn2C[C@@H](O)[C@@H](O)C(=O)O [MMV689255] |  |  |  |  | 3.4 | -1.3 | 18 | 2 | 
20 | CC(c1cc(Cl)cc(Cl)c1)N(C)c1ncc2c(N)nc(N)nc2n1 (stereo not shown) [MMV689437] | -12 | 3.6 | -3 | 9 |  |  |  |  | 
21 | CNc1cc(C)nc(C2CN(C(=O)c3n[nH]c4ccccc34)CCO2)c1 (stereo not shown) [MMV689709] | 8 | 3.8 | -1.4 | 1.3 |  |  |  |  | 
22 | COc1nc2ccc(Br)cc2cc1[C@@H](c1ccccc1)[C@@](O)(CCN(C)C)c1cccc2ccccc12 [MMV689758] |  |  |  |  | 9 | -1.4 | 19 | 10 | 
23 | COc1ccc(C2=NN(C3CCCCCC3)C(=O)[C@H]3CC=CC[C@@H]23)cc1OCCCCOc1ccc(-c2nn[nH]n2)cc1 [MMV690027] |  |  |  |  | 6.4 | -1.8 |  |  | inhibition at 5 µM ([1]; read-out: Inhibition at 5 µM (Mean ± SEM %) TbrCatL 0′): 6 ± 2%; inhibition at 5 µM ([1]; read-out: Inhibition at 5 µM (Mean ± SEM %) TbrCatL 10′ inc): 0%; inhibition at 5 µM ([2]; read-out: Inhibition at 5 µM (Mean ± SEM %) Cruzain 0′, 5 µM, no pre-incubation, initial screening): 50 ± 5%; inhibition at 5 µM ([2]; read-out: Inhibition at 5 µM (Mean ± SEM %) Cruzain 10′ inc, 5 µM, 10′ pre-incubation, initial screening): 33 ± 2%; inhibition at 5 µM ([2]; read-out: Inhibition of cruzain or TbrCatL (either enzyme) in the initial screening, 5 µM, either cruzain or TbrCatL, with or without pre-incubation): ≥ 40%
24 | COc1ccc(Oc2ccc([C@@H](C)N(C)c3ncc4c(N)nc(N)nc4n3)cc2)cc1 [MMV690102] | -2.5 | 14 | 0.4 | 12 |  |  |  |  | 
25 | C[C@H](c1ccc2c(c1)CCCC2)N(C)c1ncc2c(N)nc(N)nc2n1 [MMV690103] | -18 | -22 | -2.7 | 16 |  |  |  |  | 
26 | CCc1ccc(C(NCc2nc(N)nc(N(C)C)n2)C(C)C)cc1 (stereo not shown) [MMV1019989] | -6 | -5 | -10 | -7 |  |  |  |  | 
27 | O=C(Nc1nc(-c2ccccn2)cs1)C1CC1c1ccccc1F (stereo not shown) [MMV1028806] |  |  |  |  | 17 | 3.6 | 24 | 17 | 
28 | CNC(=O)CNc1nc(-c2ccccn2)nc2scc(-c3ccccc3)c12 [MMV1029203] | -10 | -7 | -6 | 28 |  |  |  |  | 
29 | CCCn1c(NC(=O)c2ccc3ccccc3n2)nc2ccccc21 [MMV1030799] | -8 | -11 | -3.4 | 2.4 |  |  |  |  | 
30 | CCNC(=O)C(C)Nc1nc(-c2cccnc2)nc2sc(C)c(C)c12 (stereo not shown) [MMV1037162] | 6 | -0.5 | -0.8 | 1.7 |  |  |  |  | 
31 | Cc1ccc(-c2nc(CN(Cc3ccccn3)C(C)C)cs2)o1 [MMV1088520] | -6 | -24 | -17 | -15 |  |  |  |  | 
32 | COc1cccn2c(C(=O)N3CCCCC3)c(C(F)(F)F)nc12 [MMV1110498] |  |  |  |  | 13 | 6.4 | 8 | 9 | 
33 | Cc1cc(OCC(=O)Nc2ccc(C(C)C)cc2)n(C)c(=O)c1C#N [MMV1198433] | -5 | -4.5 | -4.6 | -6 |  |  |  |  | 
34 | CCOC(=O)c1noc(N)c1-c1ccccc1 [MMV1236379] |  |  |  |  |  |  |  |  | TbrCatL Inhibition 0’ [1, 3]: -9%; TbrCatL Inhibition 10’ [1, 4]: -1.7%; Cruzain Inhibition 0’ [2, 3]: -8%; Cruzain Inhibition 10’ [2, 4]: 7%
